Results taken from patent publication US10023565B2, “N,N′ substituted piperidinamine compounds, and preparation method and usage thereof” (Institute of Pharmacology and Toxicology Academy of …, priority 2013, dated 2018).

What was measured:
Assay in all cases: Antitumor bioactivity evaluation, breast cancer cells (ATPlite)
BT/Lap^R1.0 = format: cell-based, human; details: Homo sapiens; test sample 5 μM, 72 hours; read-out: Inhibitory Rate % BT/Lap^R1.0
Method: (§1) Antitumor bioactivity evaluation of the compounds of Examples according to the method described below
(§2) Cells plating: a 100 mm culture dish with overgrown adherent cells was digested with 1 ml 0.25% trypsin (GIBCO) at 37° C. for 5 min, and the reaction was terminated with 2 ml culture medium (containing 10% FBS, GIBCO). The cells were scattered and collected, after counting, diluted to 1×10^5 cells/ml, and seeded into a 96-well plate at 50 μl/well, 5000 cells/well, excluding the peripheral circle of wells in which no cell was added, but PBS was added, 60 wells in total, and then incubated at 37° C. for 24 hours for adhering.
(§3) Addition of the compound and lapatinib: the test sample was diluted to a final concentration of 5 μM, and the culture medium with the corresponding compound solvent concentration was filled in the control well, the compound solvent concentration was kept consistent in each well, 5 parellel wells were set for each concentration, 25 μl each well, 25 μl culture medium (in combined group, 25 μl lapatinib was added till a final concentration of 1 μM) supplemented, followed by incubation at 37° C. for 72 hours.
(§4) Test after incubation at 37° C. for 72 hours: 50 μL of ATPlite kit substrate solution was added in each well, and vibrated for 3 min, followed by placing aside in darkness for 10 min, and then supernatant 100 μl/well was taken and placed on aluminescence test plate; the luminescence test plate that has been fully incubated was placed in a luminescence test instrument, to read luminescence value.
(§5) 1. Cell survival rate (%)=Experimental group RLU/control group RLU×100%. The experimental data were subjected to data analysis and processing by utilizing GraphPad software.

SK-BR3 = format: cell-based; details: Homo sapiens, SK-BR-3; test sample 5 μM, 72 hours; read-out: Inhibitory Rate % SK-BR3
Method: as §1, §2, §3, §4, §5

MDA-MB-361 = format: cell-based; details: Homo sapiens, test sample 5 μM, 72 hours, read-out: Inhibitory Rate % MDA-MB-361
Method: as §1, §2, §3, §4, §5

MDA-MB-453 = format: cell-based; details: Homo sapiens, test sample 5 μM, 72 hours, read-out: Inhibitory Rate % MDA-MB-453
Method: as §1, §2, §3, §4, §5

SK/Lap^R1.0 = format: cell-based; details: Homo sapiens; test sample 5 μM, 72 hours; read-out: Inhibitory Rate % SKLap^R1.0
Method: as §1, §2, §3, §4, §5

BT474 = format: cell-based; details: Homo sapiens, BT-474; test sample 5 μM, 72 hours; read-out: Inhibitory Rate % BT474
Method: as §1, §2, §3, §4, §5

| SMILES | inhibition at 5 µM (BT/Lap^R1.0) [%] | inhibition at 5 µM (SK-BR3) [%] | inhibition at 5 µM (MDA-MB-361) [%] | inhibition at 5 µM (MDA-MB-453) [%] | inhibition at 5 µM (SK/Lap^R1.0) [%] | inhibition at 5 µM (BT474) [%] |
| --- | --- | --- | --- | --- | --- | --- |
| CN(Cc1c(Cl)cccc1Cl)C1CCN(Cc2cnc(Cl)s2)CC1 [Example 24, N-methyl-N-(2,6-dichlorobenzyl)-N-{[1-(2-chlorothiazol-5-yl)methyl]piperidin-4-yl}amine] | 7.1 | 19 | 10.2 | 21.1 | 8.5 | 11.1 |
| CSc1ncc(CN2CCC(N(C)Cc3ccccc3C)CC2)s1 [Example 25, N-methyl-N-(2-methylbenzyl)-N-{[1-(2-methylthiothiazol-5-yl)methyl]piperidin-4-yl}amine] | 1.4 | 21.9 | 31.7 | 35.1 | 6.9 | 15.5 |
| CSc1ncc(CN2CCC(N(C)Cc3ccc(C)cc3)CC2)s1 [Example 26, N-methyl-N-(4-methylbenzyl)-N-{[1-(2-methylthiothiazol-5-yl)methyl]piperidin-4-yl}amine] | 66.7 | 49.6 | 38.3 | 67.1 | 12.1 | 68.3 |
| CSc1ncc(CN2CCC(N(C)Cc3cccc(F)c3)CC2)s1 [Example 27, N-methyl-N-(3-fluorobenzyl)-N-{[1-(2-methylthiothiazol-5-yl)methyl]piperidin-4-yl}amine] | 19.8 | 19.5 | 31.7 | 44.2 | 2.1 | 26.3 |
| CSc1ncc(CN2CCC(N(C)Cc3cccc(Cl)c3)CC2)s1 [Example 28, N-methyl-N-(3-chlorobenzyl)-N-{1-[(2-methylthiothiazol-5-yl)methyl]piperidin-4-yl}amine] | 36.1 | 26.7 | 31.1 | 62.3 | 7.3 | 44.9 |
| CSc1ncc(CN2CCC(N(C)Cc3ccc(F)cc3)CC2)s1 [Example 29, N-methyl-N-(4-fluorobenzyl)-N-{1-[(2-methylthiothiazol-5-yl)methyl]piperidin-4-yl}amine] | 50.5 | 40.9 | 32.8 | 67.4 | 11.7 | 54.4 |
| CSc1ncc(CN2CCC(N(C)Cc3ccc(Cl)c(Cl)c3)CC2)s1 [Example 30, N-methyl-N-(3,4-dichlorobenzyl)-N-{1-[(2-methylthiothiazol-5-yl)methyl]piperidin-4-yl}amine] | 67.1 | 42.4 | 42.1 | 69.9 | 10.1 | 62.6 |
| CSc1ncc(CN2CCC(N(C)Cc3c(F)cccc3Cl)CC2)s1 [Example 31, N-methyl-N-(2-fluoro-6-chlorobenzyl)-N-{1-[(2-methylthiothiazol-5-yl)methyl]piperidin-4-yl}amine] | 59.9 | 9.2 | 47.2 | 65.3 | 4.5 | 49.5 |
| CSc1ncc(CN2CCC(N(C)Cc3c(Cl)cccc3Cl)CC2)s1 [Example 32, N-methyl-N-(2,6-dichlorobenzyl)-N-{1-[(2-methylthiothiazol-5-yl)methyl]piperidin-4-yl}amine] | 54.9 | 24.3 | 45.2 | 63.7 | 26.8 | 54.9 |
| CSc1ncc(CN2CCC(N(C)Cc3ccc(Cl)cc3Cl)CC2)s1 [Example 33, N-methyl-N-(2,4-dichlorobenzyl)-N-{1-[(2-methylthiothiazol-5-yl)methyl]piperidin-4-yl}amine] | 66.3 | 37.8 | 36.3 | 72.4 | 40.4 | 70 |
| CSc1ncc(CN2CCC(N(C)Cc3cc(Cl)ccc3Cl)CC2)s1 [Example 34, N-methyl-N-(2,5-dichlorobenzyl)-N-{1-[(2-methylthiothiazol-5-yl)methyl]piperidin-4-yl}amine] | 34.4 | 23.3 | 25.4 | 59.4 | 11.4 | 42.3 |
| CSc1nccc(N2CCC(N(C)Cc3ccc(Cl)c(Cl)c3)CC2)n1 [Example 38, N-methyl-N-(3,4-dichlorobenzyl)-N-[1-(2-methylthiopyrimidin-4-yl)piperidin-4-yl]amine] | 29.9 | 30.1 | 29.5 | 60 | 12.9 | 39.5 |
| CSc1nccc(N2CCC(N(C)Cc3cccc(Cl)c3)CC2)n1 [Example 39, N-methyl-N-(3-chlorobenzyl)-N-[1-(2-methylthiopyrimidin-4-yl)piperidin-4-yl]amine] | 25.1 | 26.4 | 39.1 | 65.7 | 24.4 | 35.1 |
| CSc1nccc(N2CCC(N(C)Cc3ccccc3C#N)CC2)n1 [Example 41, N-methyl-N-(2-cyanobenzyl)-N-[1-(2-methylthiopyrimidin-4-yl)piperidin-4-yl]amine] | 65.8 | 38.9 | 55.7 | 66.6 | 42 | 69.2 |
| CSc1nccc(N2CCC(N(C)Cc3ccc(C)cc3)CC2)n1 [Example 42, N-methyl-N-(4-methylbenzyl)-N-[1-(2-methylthiopyrimidin-4-yl)piperidin-4-yl]amine] | 28.6 | 41.4 | 45.1 | 60.8 | 35.8 | 36.7 |
| COc1nccc(N2CCC(N(C)Cc3ccccc3Cl)CC2)n1 [Example 43, N-methyl-N-(2-chlorobenzyl)-N-[1-(2-methoxypyrimidin-4-yl)piperidin-4-yl]amine] | 56.9 | 19.3 | 45.7 | 69.3 | 29.4 | 61 |
| CSc1nccc(N2CCC(N(C)Cc3cc(Cl)ccc3Cl)CC2)n1 [Example 44, N-methyl-N-(2,5-dichlorobenzyl)-N-[1-(2-methylthiopyrimidin-4-yl)piperidin-4-yl]amine] | 63.9 | 32.6 | 50.4 | 66.2 | 35.2 | 67.1 |
| CSc1nccc(N2CCC(N(C)Cc3cccc(F)c3)CC2)n1 [Example 45, N-methyl-N-(3-fluorobenzyl)-N-[1-(2-methylthiopyrimidin-4-yl)piperidin-4-yl]amine] | 17.5 | 22.2 | 36.2 | 45.3 | 34.2 | 21.3 |
| CNC1CCN(c2nccc(OC)n2)CC1 [Example 46, N-methyl-N-[1-(4-methoxypyrimidin-2-yl)piperidin-4-yl]amine] | 70 | 85.9 | 53.2 | 79.2 | 71 | 73.1 |
| COc1nccc(N2CCC(N(C)Cc3ccc(C#N)cc3)CC2)n1 [Example 48, N-methyl-N-(4-cyanobenzyl)-N-[1-(2-methoxypyrimidin-4-yl)piperidin-4-yl]amine] | 72.7 | 86.5 | 53.3 | 79.5 | 74.3 | 71.6 |
| COc1nccc(N2CCC(N(C)Cc3ccccc3C#N)CC2)n1 [Example 50, N-methyl-N-(2-cyanobenzyl)-N-[1-(2-methoxypyrimidin-4-yl)piperidin-4-yl]amine] | 22.7 | 24.7 | 22 | 50.6 | 11.7 | 27.5 |
| COc1nccc(N2CCC(N(C)Cc3ccc(C)cc3)CC2)n1 [Example 51, N-methyl-N-(4-methylbenzyl)-N-[1-(2-methoxypyrimidin-4-yl)piperidin-4-yl]amine] | 65.2 | 34.5 | 45.7 | 70.5 | 22.4 | 65.6 |
